Test results taken from the NIST ThermoML archive (doi:10.1016/j.jct.2013.09.039).
Numbers after ± are expanded uncertainties.

Test: xn = mol fraction of the nth substance listed
Conditions: Liquid, Vibrating tube method

Cc1ccc(C)cc1 [1,4-dimethylbenzene] + CCCCCCCCCC showed a mass density (298.15 K, 20000 kPa, x2 = 0.0513) of 860 ± 4 kg/m3, a mass density (298.15 K, 20000 kPa, x2 = 0.0971) of 851.2 ± 4 kg/m3 and a mass density (298.15 K, 20000 kPa, x2 = 0.1962) of 833.8 ± 4 kg/m3. The mass density (298.15 K, 20000 kPa, x2 = 0.2932) was 818.4 ± 4 kg/m3, the mass density (298.15 K, 20000 kPa, x2 = 0.3942) was 806 ± 4 kg/m3 and the mass density (298.15 K, 20000 kPa, x2 = 0.4987) was 790.4 ± 4 kg/m3. The mass density (298.15 K, 20000 kPa, x2 = 0.5563) was 783.6 ± 4 kg/m3, the mass density (298.15 K, 20000 kPa, x2 = 0.5965) was 778.8 ± 4 kg/m3 and the mass density (298.15 K, 20000 kPa, x2 = 0.7018) was 767.7 ± 4 kg/m3. It also gave a mass density (298.15 K, 20000 kPa, x2 = 0.8047) of 757.4 ± 4 kg/m3, a mass density (298.15 K, 20000 kPa, x2 = 0.8975) of 748.2 ± 4 kg/m3 and a mass density (298.15 K, 20000 kPa, x2 = 0.9474) of 744.7 ± 4 kg/m3. For the same compound, the mass density (298.15 K, 30000 kPa, x2 = 0.0513) was 866.2 ± 4 kg/m3, the mass density (298.15 K, 30000 kPa, x2 = 0.0971) was 857.6 ± 4 kg/m3 and the mass density (298.15 K, 30000 kPa, x2 = 0.1962) was 840.2 ± 4 kg/m3. It also gave a mass density (298.15 K, 30000 kPa, x2 = 0.2932) of 824.7 ± 4 kg/m3, a mass density (298.15 K, 30000 kPa, x2 = 0.3942) of 812.4 ± 4 kg/m3 and a mass density (298.15 K, 30000 kPa, x2 = 0.4987) of 796.8 ± 4 kg/m3. The mass density (298.15 K, 30000 kPa, x2 = 0.5563) was 789.9 ± 4 kg/m3, the mass density (298.15 K, 30000 kPa, x2 = 0.5965) was 785.2 ± 4 kg/m3 and the mass density (298.15 K, 30000 kPa, x2 = 0.7018) was 774 ± 4 kg/m3. The mass density (298.15 K, 30000 kPa, x2 = 0.8047) was 763.7 ± 4 kg/m3, the mass density (298.15 K, 30000 kPa, x2 = 0.8975) was 755.2 ± 4 kg/m3 and the mass density (298.15 K, 30000 kPa, x2 = 0.9474) was 750.9 ± 4 kg/m3. For the same compound, the mass density (298.15 K, 40000 kPa, x2 = 0.0513) was 872.1 ± 4 kg/m3, the mass density (298.15 K, 40000 kPa, x2 = 0.0971) was 863.4 ± 4 kg/m3 and the mass density (298.15 K, 40000 kPa, x2 = 0.1962) was 846 ± 4 kg/m3. The mass density (298.15 K, 40000 kPa, x2 = 0.2932) was 830.4 ± 4 kg/m3, the mass density (298.15 K, 40000 kPa, x2 = 0.3942) was 818.2 ± 4 kg/m3 and the mass density (298.15 K, 40000 kPa, x2 = 0.4987) was 802.6 ± 4 kg/m3. It also gave a mass density (298.15 K, 40000 kPa, x2 = 0.5563) of 795.7 ± 4 kg/m3, a mass density (298.15 K, 40000 kPa, x2 = 0.5965) of 791.1 ± 4 kg/m3 and a mass density (298.15 K, 40000 kPa, x2 = 0.7018) of 779.8 ± 4 kg/m3. The mass density (298.15 K, 40000 kPa, x2 = 0.8047) was 769.5 ± 4 kg/m3, the mass density (298.15 K, 40000 kPa, x2 = 0.8975) was 761.6 ± 4 kg/m3 and the mass density (298.15 K, 40000 kPa, x2 = 0.9474) was 757.2 ± 4 kg/m3. The mass density (308.15 K, 100 kPa, x2 = 0.0513) was 837.2 ± 4 kg/m3, the mass density (308.15 K, 100 kPa, x2 = 0.0971) was 828.6 ± 4 kg/m3 and the mass density (308.15 K, 100 kPa, x2 = 0.1962) was 811.1 ± 4 kg/m3. The mass density (308.15 K, 100 kPa, x2 = 0.2932) was 795.7 ± 4 kg/m3, the mass density (308.15 K, 100 kPa, x2 = 0.3942) was 783.5 ± 4 kg/m3 and the mass density (308.15 K, 100 kPa, x2 = 0.4987) was 768.1 ± 4 kg/m3. For the same compound, the mass density (308.15 K, 100 kPa, x2 = 0.5563) was 761 ± 4 kg/m3, the mass density (308.15 K, 100 kPa, x2 = 0.5965) was 757 ± 4 kg/m3 and the mass density (308.15 K, 100 kPa, x2 = 0.7018) was 746.3 ± 4 kg/m3. For the same compound, the mass density (308.15 K, 100 kPa, x2 = 0.8047) was 736.1 ± 4 kg/m3, the mass density (308.15 K, 100 kPa, x2 = 0.8975) was 727.9 ± 4 kg/m3 and the mass density (308.15 K, 100 kPa, x2 = 0.9474) was 723.2 ± 4 kg/m3. The mass density (308.15 K, 5000 kPa, x2 = 0.0513) was 841.3 ± 4 kg/m3, the mass density (308.15 K, 5000 kPa, x2 = 0.0971) was 832.6 ± 4 kg/m3 and the mass density (308.15 K, 5000 kPa, x2 = 0.1962) was 815.2 ± 4 kg/m3. The mass density (308.15 K, 5000 kPa, x2 = 0.2932) was 799.9 ± 4 kg/m3, the mass density (308.15 K, 5000 kPa, x2 = 0.3942) was 787.7 ± 4 kg/m3 and the mass density (308.15 K, 5000 kPa, x2 = 0.4987) was 772.1 ± 4 kg/m3. The mass density (308.15 K, 5000 kPa, x2 = 0.5563) was 765.2 ± 4 kg/m3, the mass density (308.15 K, 5000 kPa, x2 = 0.5965) was 760.6 ± 4 kg/m3 and the mass density (308.15 K, 5000 kPa, x2 = 0.7018) was 749.6 ± 4 kg/m3. For the same compound, the mass density (308.15 K, 5000 kPa, x2 = 0.8047) was 739.4 ± 4 kg/m3, the mass density (308.15 K, 5000 kPa, x2 = 0.8975) was 731.3 ± 4 kg/m3 and the mass density (308.15 K, 5000 kPa, x2 = 0.9474) was 726.8 ± 4 kg/m3. For the same compound, the mass density (308.15 K, 10000 kPa, x2 = 0.0513) was 844.9 ± 4 kg/m3, the mass density (308.15 K, 10000 kPa, x2 = 0.0971) was 836.5 ± 4 kg/m3 and the mass density (308.15 K, 10000 kPa, x2 = 0.1962) was 819.1 ± 4 kg/m3. For the same compound, the mass density (308.15 K, 10000 kPa, x2 = 0.2932) was 803.7 ± 4 kg/m3, the mass density (308.15 K, 10000 kPa, x2 = 0.3942) was 791.4 ± 4 kg/m3 and the mass density (308.15 K, 10000 kPa, x2 = 0.4987) was 776.1 ± 4 kg/m3. The mass density (308.15 K, 10000 kPa, x2 = 0.5563) was 769.3 ± 4 kg/m3, the mass density (308.15 K, 10000 kPa, x2 = 0.5965) was 764.5 ± 4 kg/m3 and the mass density (308.15 K, 10000 kPa, x2 = 0.7018) was 753.5 ± 4 kg/m3. The mass density (308.15 K, 10000 kPa, x2 = 0.8047) was 743.3 ± 4 kg/m3, the mass density (308.15 K, 10000 kPa, x2 = 0.8975) was 734.8 ± 4 kg/m3 and the mass density (308.15 K, 10000 kPa, x2 = 0.9474) was 730.9 ± 4 kg/m3. The mass density (308.15 K, 20000 kPa, x2 = 0.0513) was 851.9 ± 4 kg/m3, the mass density (308.15 K, 20000 kPa, x2 = 0.0971) was 843.4 ± 4 kg/m3 and the mass density (308.15 K, 20000 kPa, x2 = 0.1962) was 826 ± 4 kg/m3. The mass density (308.15 K, 20000 kPa, x2 = 0.2932) was 810.6 ± 4 kg/m3, the mass density (308.15 K, 20000 kPa, x2 = 0.3942) was 798.6 ± 4 kg/m3 and the mass density (308.15 K, 20000 kPa, x2 = 0.4987) was 783.3 ± 4 kg/m3. It also gave a mass density (308.15 K, 20000 kPa, x2 = 0.5563) of 776.4 ± 4 kg/m3, a mass density (308.15 K, 20000 kPa, x2 = 0.5965) of 771.7 ± 4 kg/m3 and a mass density (308.15 K, 20000 kPa, x2 = 0.7018) of 760.6 ± 4 kg/m3. For the same compound, the mass density (308.15 K, 20000 kPa, x2 = 0.8047) was 750.3 ± 4 kg/m3, the mass density (308.15 K, 20000 kPa, x2 = 0.8975) was 741.9 ± 4 kg/m3 and the mass density (308.15 K, 20000 kPa, x2 = 0.9474) was 737.9 ± 4 kg/m3. It also gave a mass density (308.15 K, 30000 kPa, x2 = 0.0513) of 858.8 ± 4 kg/m3, a mass density (308.15 K, 30000 kPa, x2 = 0.0971) of 849.8 ± 4 kg/m3 and a mass density (308.15 K, 30000 kPa, x2 = 0.1962) of 832.7 ± 4 kg/m3. For the same compound, the mass density (308.15 K, 30000 kPa, x2 = 0.2932) was 817.4 ± 4 kg/m3, the mass density (308.15 K, 30000 kPa, x2 = 0.3942) was 805.2 ± 4 kg/m3 and the mass density (308.15 K, 30000 kPa, x2 = 0.4987) was 789.9 ± 4 kg/m3. It also gave a mass density (308.15 K, 30000 kPa, x2 = 0.5563) of 783 ± 4 kg/m3, a mass density (308.15 K, 30000 kPa, x2 = 0.5965) of 778.2 ± 4 kg/m3 and a mass density (308.15 K, 30000 kPa, x2 = 0.7018) of 767 ± 4 kg/m3. For the same compound, the mass density (308.15 K, 30000 kPa, x2 = 0.8047) was 757 ± 4 kg/m3, the mass density (308.15 K, 30000 kPa, x2 = 0.8975) was 748.5 ± 4 kg/m3 and the mass density (308.15 K, 30000 kPa, x2 = 0.9474) was 744.4 ± 4 kg/m3. It also gave a mass density (308.15 K, 40000 kPa, x2 = 0.0513) of 865.1 ± 4 kg/m3, a mass density (308.15 K, 40000 kPa, x2 = 0.0971) of 856 ± 4 kg/m3 and a mass density (308.15 K, 40000 kPa, x2 = 0.1962) of 838.9 ± 4 kg/m3. For the same compound, the mass density (308.15 K, 40000 kPa, x2 = 0.2932) was 823.6 ± 4 kg/m3, the mass density (308.15 K, 40000 kPa, x2 = 0.3942) was 811.3 ± 4 kg/m3 and the mass density (308.15 K, 40000 kPa, x2 = 0.4987) was 795.9 ± 4 kg/m3. The mass density (308.15 K, 40000 kPa, x2 = 0.5563) was 789.1 ± 4 kg/m3, the mass density (308.15 K, 40000 kPa, x2 = 0.5965) was 785 ± 4 kg/m3 and the mass density (308.15 K, 40000 kPa, x2 = 0.7018) was 773.3 ± 4 kg/m3. The mass density (308.15 K, 40000 kPa, x2 = 0.8047) was 763.1 ± 4 kg/m3, the mass density (308.15 K, 40000 kPa, x2 = 0.8975) was 755.1 ± 4 kg/m3 and the mass density (308.15 K, 40000 kPa, x2 = 0.9474) was 750.9 ± 4 kg/m3.
